Assays:
[1] = biological target: T1, recombinant CTT domain of R232 STING (Homo sapiens, UniProt Q86WV6, H232R); assay: In vitro kinase assay, recombinant CTT domain of R232 STING plus recombinant TBK1; assay type: biochemical; conditions: cell free, immunoblot
T1 construct: corresponding to the soluble domain of STING (138 to 379 aa) protein; purchased Cayman Chemicals (STING); Invitrogen (TBK1) 22816 (STING); A31514 (TBK1)
Method: 50ng of recombinant STING protein (Cayman Chemicals Cat# 22816) corresponding to the soluble domain of STING (138 to 379 aa) protein or 1 μl of ER fraction (8mg/ml) containing full length STING from R232.hSTING was incubated with 20 ng of recombinant full length TBK1 protein (Invitrogen, Cat# A31514) in the presence/absence of test compound in 20 μl reaction buffer (50mM Tris-HCl of pH 7.4, 100mM NaCl, 5mM MgCl2, 5mM MnCl2, 10% glycerol, 0.2mM Na3VO4, 20mM β-glycero-PO4, 0.5mM ATP) and 0.01% BSA at 30 °C for 45 min. The reaction was quenched by addition of 2 μl of 10X EDTA to a final concentration of […]. Samples were treated with 4x gel loading dye followed by electrophoresis in 10% SDS-PAGE gels and transferred to Immobilon-P membranes (Millipore). […] Anti-rabbit HRP labelled secondary antibody (Abcam) and Clarity Max™ western ECL substrate (Biorad, Cat# 1705062) were used for visualization of bands using a BioRad XRS plus imager.

THP1 cells = tested on: THP1 cells; parameters: method as in PMID 26646986; conditions: cited from earlier work
HAQ STING (THP-1 cells) = biological target: T2, HAQ STING (THP-1 cells) (Homo sapiens, UniProt Q86WV6, G230A/R293Q/R71H); assay: Western blot of pSTING and pIRF3 in THP-1 cells; assay type: cell-based; conditions: immunoblot, 2 hours
T2 construct: THP1 cells constitutively express the HAQ variant of human STING; host or cells: THP-1
Method: (§1) 5 x 10^5 cells were seeded in 24-well plates in 500 μl growth medium and stimulated with novel compounds at 10μM. After 2 hours of treatment cells were harvested by centrifugation and cell pellets were lysed in RIPA buffer (20mM Tris-Cl, 150mM NaCl, 0.5mM EDTA, 1% NP40, 0.05% SDS) containing 1x phosphatase inhibitor cocktail 3 (Sigma) and 1x protease inhibitor (Roche) to extract the soluble fraction of protein. 10 μg of extracted protein was electrophoresed in 10% SDS-PAGE gels and transferred onto Immobilon-P membranes (Millipore).

TBK1 = TBK1 (Homo sapiens, UniProt Q9UHD2); assay: TBK1 kinase assay in the presence of G10; assay type: biochemical; conditions: S1 Table
[2] = biological target: T3, AQ variant of human STING (Homo sapiens, UniProt Q86WV6, G230A/R293Q); assay: Luciferase (ISRE.ISG reporter) assay in HEK293T cells stably expressing AQ hSTING; assay type: cell-based
T3 construct: expressed in transfected cells
Source text: (§2) • a) Stable STING expressing cells. Stable HEK293T STING-expressing cell lines were generated using plasmids purchased from Invivogen, CA, USA, that contain STING cDNA cloned into the pUNO-1 vector under the hEF1-HTLV promoter as well as the Blasticidin selection cassette. The human STING plasmids corresponding to the R232, H232 and HAQ variants were directly procured from Invivogen while the AQ and Q variants were created by mismatch PCR using cDNA from HAQ.STING and R232.STING variants respectively. These vectors were individually transfected into HEK293T cells using Lipofectamine (Invitrogen) and transfected cells were expanded under Blasticidin selection. These cells were further subjected to clonal selection using the limiting dilution method to obtain clonally pure populations of HEK293T cells expressing each of the five human STING variants. Clones with minimal ligand independent activation of STING were chosen for cellular experiments. • b) N-His R232.hSTING HEK293T cells. […]
(§3) […] clonally selected HEK293T-hSTING-Luciferase cells or control HEK293T-Luciferase cells were seeded in 384-well plates in growth medium and stimulated with known STING agonists or novel compounds. Supernatants were removed after 20 hours of treatment and secretory reporter gene activity was measured using the Quanti-Luc detection system (Invivogen) on a Spectramax i3X luminometer.

Q variant of human STING = biological target: T4, Q variant of human STING (Homo sapiens, UniProt Q86WV6, R293Q); assay: Luciferase (ISRE.ISG reporter) assay in HEK293T cells stably expressing Q hSTING; assay type: cell-based
T4 construct: expressed in transfected cells
Source text: as §2, §3

[3] = biological target: T5, mSTING (wild type CT26 cells) (Mus musculus, UniProt Q3TBT3); assay: Western blot of pSTING and pIRF3 in parent CT26 cells; assay type: cell-based; conditions: immunoblot (S10 Fig)
T5 construct: endogenous in cells; host or cells: CT26 (parent line, and the endogenous protein in R232.hSTING.CT26)
Method: as §1, with “(Millipore). […] Anti-rabbit HRP label secondary antibody (Abcam) and Clarity Max™ western ECL substrate (Biorad—cat# 1705062) were used for visualization of bands using a BioRad XRS plus imager.” for “(Millipore).”

[4] = biological target: T6, full length R232.hSTING (ER fraction of transfected HEK293T cells) (Homo sapiens, UniProt Q86WV6, H232R); assay: In vitro kinase assay, ER fraction with full length R232 STING plus recombinant TBK1; assay type: biochemical; conditions: cell free, immunoblot
T6 construct: ER fraction (8mg/ml) containing full length STING from R232.hSTING; host or cells: ER fraction of R232.hSTING HEK293T cells
Method: This was followed by homogenization 3 times with a 30 sec each pulse and 1 min cooling between each pulse. Homogenates were centrifuged at 5000g for 10 min at 4 °C to remove nuclei, mitochondria and cell membrane from the cytosolic fraction. Supernatant was further centrifuged at 100000g for 1 h at 4 °C to fractionate the ER containing cytosolic fraction. The pellet thus obtained was resuspended in homogenization buffer and washed by centrifugation at 100000g twice. Post washing, the ER fraction containing pellet was resuspended in ER buffer (final composition: 20 mM Tris-HCl, 100 mM NaCl, 5 mM MgCl2, 5 mM MnCl2, 20 mM beta Glycerophosphate, 0.2 mM Na3VO4, 1X protease inhibitor cocktail (Roche), pH 7.5) using a syringe fitted with a 26G needle passing through it several times till homogeneity. The protein content of the ER homogenate was estimated by the BCA method and aliquots were stored at -80 °C for further use. […]

T6 sequence (Q86WV6 whole entry H232R): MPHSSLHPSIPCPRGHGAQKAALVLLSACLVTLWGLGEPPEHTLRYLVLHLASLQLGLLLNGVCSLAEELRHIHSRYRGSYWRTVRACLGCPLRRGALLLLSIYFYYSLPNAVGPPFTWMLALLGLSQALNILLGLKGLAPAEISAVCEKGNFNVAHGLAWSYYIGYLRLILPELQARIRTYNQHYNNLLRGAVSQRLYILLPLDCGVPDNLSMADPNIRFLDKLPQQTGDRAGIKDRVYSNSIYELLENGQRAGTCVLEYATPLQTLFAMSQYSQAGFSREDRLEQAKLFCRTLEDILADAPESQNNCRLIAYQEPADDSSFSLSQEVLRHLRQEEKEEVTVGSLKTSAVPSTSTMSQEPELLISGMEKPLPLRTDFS
T1 sequence (Q86WV6 138-379 H232R): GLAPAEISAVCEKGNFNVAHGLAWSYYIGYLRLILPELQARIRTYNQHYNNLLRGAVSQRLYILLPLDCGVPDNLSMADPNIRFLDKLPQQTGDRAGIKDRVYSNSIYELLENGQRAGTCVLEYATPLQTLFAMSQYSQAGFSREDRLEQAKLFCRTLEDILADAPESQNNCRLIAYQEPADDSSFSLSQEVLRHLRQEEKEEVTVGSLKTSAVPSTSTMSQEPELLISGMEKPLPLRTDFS
T2 sequence (Q86WV6 whole entry R71H/G230A/R293Q): as the sequence (Q86WV6 whole entry H232R) above, with R71H, G230A, R232H, R293Q counted along it
T5 sequence (Q3TBT3 whole entry): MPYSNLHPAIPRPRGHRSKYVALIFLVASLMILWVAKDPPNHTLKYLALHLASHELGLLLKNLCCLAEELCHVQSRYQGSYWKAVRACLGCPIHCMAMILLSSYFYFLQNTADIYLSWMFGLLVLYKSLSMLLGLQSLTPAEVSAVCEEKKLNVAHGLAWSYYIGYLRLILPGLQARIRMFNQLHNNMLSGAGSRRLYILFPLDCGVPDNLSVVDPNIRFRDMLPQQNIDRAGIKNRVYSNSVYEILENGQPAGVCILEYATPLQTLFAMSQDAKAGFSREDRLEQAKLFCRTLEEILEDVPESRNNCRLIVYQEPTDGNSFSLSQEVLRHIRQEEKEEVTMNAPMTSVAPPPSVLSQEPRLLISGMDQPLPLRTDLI
T3 sequence (Q86WV6 whole entry G230A/R293Q): as the sequence (Q86WV6 whole entry H232R) above, with G230A, R232H, R293Q counted along it
Chain of TBK1 (Q9UHD2 whole entry): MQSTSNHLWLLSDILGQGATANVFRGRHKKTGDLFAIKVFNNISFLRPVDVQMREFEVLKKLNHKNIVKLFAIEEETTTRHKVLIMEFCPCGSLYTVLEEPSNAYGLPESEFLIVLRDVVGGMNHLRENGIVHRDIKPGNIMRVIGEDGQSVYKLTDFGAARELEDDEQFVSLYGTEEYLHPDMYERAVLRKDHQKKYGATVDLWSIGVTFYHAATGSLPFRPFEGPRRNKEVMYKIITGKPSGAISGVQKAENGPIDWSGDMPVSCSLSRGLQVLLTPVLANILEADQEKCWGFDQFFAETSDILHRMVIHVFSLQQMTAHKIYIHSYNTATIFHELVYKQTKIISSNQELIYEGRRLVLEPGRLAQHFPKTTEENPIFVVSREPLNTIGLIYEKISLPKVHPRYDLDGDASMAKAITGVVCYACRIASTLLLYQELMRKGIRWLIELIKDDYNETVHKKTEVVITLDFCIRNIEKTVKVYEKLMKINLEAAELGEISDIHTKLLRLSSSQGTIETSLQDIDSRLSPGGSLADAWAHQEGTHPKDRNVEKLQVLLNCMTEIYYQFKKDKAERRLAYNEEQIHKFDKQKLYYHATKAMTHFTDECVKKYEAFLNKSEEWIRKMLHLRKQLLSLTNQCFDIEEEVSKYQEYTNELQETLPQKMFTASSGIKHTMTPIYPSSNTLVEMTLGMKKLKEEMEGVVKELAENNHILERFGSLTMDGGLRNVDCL
T4 sequence (Q86WV6 whole entry R293Q): as the sequence (Q86WV6 whole entry H232R) above, with R232H, R293Q counted along it

O=C(NCc1ccco1)c1ccc2c(c1)N(Cc1c(F)cccc1Cl)C(=O)CS2 [Compound G10, 4-(2-Chloro-6-fluorobenzyl)-N-(furan-2-ylmethyl)-3-oxo-3,4-dihydro-2H-benzo[b][1,4]thiazine-6-carboxamide]
formation of pSTING by TBK1, recombinant CTT domain of R232 STING [1]: activated
activation of IRF3 or NFκB linked reporters in THP1 (THP1 cells): unable to activate
phosphorylation of STING and IRF3 (pSTING, pIRF3) in THP1 cells (HAQ STING (THP-1 cells)): unable to detect either pSTING or pIRF3
effect on TBK-1 enzyme (TBK1): does not inhibit or activate
activity against the AQ variant [2]: barely active
activity against the Q variant (Q variant of human STING): barely active
phosphorylation of mSTING or mIRF3, parent CT26 line [3]: did not lead to phosphorylation
formation of pSTING by TBK1, ER fraction with full length R232 STING [4]: activated

From paper PMC7482845, “G10 is a direct activator of human STING” (PLoS ONE, 2020)
